ChEMBL document CHEMBL1129600, “Identification of retinoic acid receptor beta subtype specific agonists” (J Med Chem, 1996)

What was measured:
[1] = target: T1, Retinoic acid receptor beta (Homo sapiens, UniProt P10826); experiment: Inhibition of [3H]ATRA binding to baculovirus expressed Retinoic acid receptor RAR beta
T1 sequence (P10826 whole entry): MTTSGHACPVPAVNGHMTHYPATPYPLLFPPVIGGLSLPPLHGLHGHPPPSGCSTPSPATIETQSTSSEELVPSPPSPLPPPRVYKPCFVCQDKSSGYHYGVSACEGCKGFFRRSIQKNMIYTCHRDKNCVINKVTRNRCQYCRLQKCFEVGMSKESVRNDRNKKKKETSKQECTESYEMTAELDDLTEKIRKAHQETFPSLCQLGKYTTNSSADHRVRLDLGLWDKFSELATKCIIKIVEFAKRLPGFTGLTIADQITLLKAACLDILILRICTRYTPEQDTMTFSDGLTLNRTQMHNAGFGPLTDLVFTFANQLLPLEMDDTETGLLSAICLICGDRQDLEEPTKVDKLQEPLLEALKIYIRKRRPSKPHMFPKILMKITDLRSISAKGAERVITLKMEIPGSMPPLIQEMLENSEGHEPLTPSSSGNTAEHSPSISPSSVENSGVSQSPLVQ

[2] = target: T1, Retinoic acid receptor beta; experiment: Transcriptional activation in CV-1 cells expressing Retinoic acid receptor RAR beta; format: cell-based
[3] = target: T2, Retinoic acid receptor beta (Homo sapiens) (UniProt P10826); experiment: Relative efficacy for Retinoic acid receptor beta compared to maximal retinoic acid response
T2 sequence (whole entry): T1 sequence (P10826 whole entry)

[4] = target: T3, Retinoic acid receptor gamma (Homo sapiens, UniProt P13631); experiment: Inhibition of [3H]ATRA binding to baculovirus expressed Retinoic acid receptor RAR gamma
T3 sequence (P13631 whole entry): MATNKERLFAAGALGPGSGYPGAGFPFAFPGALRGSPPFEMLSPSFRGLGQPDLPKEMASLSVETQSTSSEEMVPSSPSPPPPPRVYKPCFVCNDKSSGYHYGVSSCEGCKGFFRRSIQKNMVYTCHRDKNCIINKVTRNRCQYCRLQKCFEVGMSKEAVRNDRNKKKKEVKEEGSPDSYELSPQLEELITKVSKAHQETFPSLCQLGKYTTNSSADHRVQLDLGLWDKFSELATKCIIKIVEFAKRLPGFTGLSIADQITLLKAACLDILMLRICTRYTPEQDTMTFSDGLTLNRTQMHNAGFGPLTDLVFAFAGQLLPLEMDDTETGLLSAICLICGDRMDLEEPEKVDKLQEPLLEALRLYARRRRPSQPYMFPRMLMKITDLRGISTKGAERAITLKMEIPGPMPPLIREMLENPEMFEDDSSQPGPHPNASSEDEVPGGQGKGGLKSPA

[5] = target: T4, Retinoic acid receptor alpha (Homo sapiens, UniProt P10276); experiment: Inhibition of [3H]ATRA binding to baculovirus expressed Retinoic acid receptor RAR alpha
T4 sequence (P10276 whole entry): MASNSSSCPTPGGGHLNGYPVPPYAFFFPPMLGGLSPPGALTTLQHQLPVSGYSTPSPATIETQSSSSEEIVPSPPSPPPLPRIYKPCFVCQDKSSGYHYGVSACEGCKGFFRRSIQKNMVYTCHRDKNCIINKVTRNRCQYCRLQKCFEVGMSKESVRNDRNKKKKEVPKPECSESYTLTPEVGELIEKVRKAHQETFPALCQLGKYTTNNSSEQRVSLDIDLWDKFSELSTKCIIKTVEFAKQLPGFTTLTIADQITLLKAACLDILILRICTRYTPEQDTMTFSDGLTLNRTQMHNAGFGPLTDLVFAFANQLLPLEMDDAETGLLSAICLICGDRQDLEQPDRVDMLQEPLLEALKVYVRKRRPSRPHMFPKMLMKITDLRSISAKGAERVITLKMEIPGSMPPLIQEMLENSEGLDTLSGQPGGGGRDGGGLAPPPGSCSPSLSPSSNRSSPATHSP

Row | Kd [1] [nM] | EC50 [2] [nM] | Eff [3] [%] | Kd [4] [nM] | Kd [5] [nM] | SMILES
1 | 20 | 25 | 32 | 104 | 129 | CC1(C)CC=C(c2cccs2)c2cc(C#Cc3ccc(C(=O)O)cc3)ccc21
2 | 189 | 26 | 47 | 1490 | 303 | CC1(C)CC=C(c2cccs2)c2cc(C(=O)Oc3ccc(C(=O)O)cc3)ccc21
3 | 996 | 115 | 61 | > 10000 | 94 | CC1(C)CC=C(c2cccs2)c2cc(C(=O)Nc3ccc(C(=O)O)cc3)ccc21
